Article PMC2752819 (Assay and drug development technologies, 2008)
Like-named read-outs stand apart in the source and are kept apart here.

Experiments:
MKP-1 = biological target: T1, MKP-1 (Homo sapiens, UniProt P28562); experiment: biochemical
T1 sequence (P28562 1-367): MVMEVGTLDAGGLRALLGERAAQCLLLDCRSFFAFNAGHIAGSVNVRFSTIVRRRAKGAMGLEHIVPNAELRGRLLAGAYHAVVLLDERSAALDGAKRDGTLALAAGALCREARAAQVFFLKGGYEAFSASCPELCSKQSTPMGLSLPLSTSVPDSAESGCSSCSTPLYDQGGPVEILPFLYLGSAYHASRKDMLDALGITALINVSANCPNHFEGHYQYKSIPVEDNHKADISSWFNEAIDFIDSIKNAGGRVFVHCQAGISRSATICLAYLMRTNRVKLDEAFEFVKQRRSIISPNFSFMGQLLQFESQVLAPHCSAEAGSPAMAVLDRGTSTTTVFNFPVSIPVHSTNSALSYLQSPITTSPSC

[1] = cited from earlier work
[2] = MKP-1 + 1 mM DTT + catalase IC50, 1 mM DTT + 100 U of catalase
[3] = MKP-1 + 25 mM DTT IC50, 25 mM DTT
[4] = read-out: MKP-1 + 1 mM DTT % inhibition at 50 μM
[5] = read-out: MKP-1 + 1 mM DTT + catalase % inhibition at 50 μM
[6] = read-out: MKP-1 + 25 mM DTT % inhibition at 50 μM

Structure (SMILES)	IC50 (MKP-1; [2]) [µM]	IC50 (MKP-1; [3]) [µM]	inhibition at 50 µM (MKP-1; [4]) [%]	inhibition at 50 µM (MKP-1; [5]) [%]	inhibition at 50 µM (MKP-1; [6]) [%]	H2O2 generation in the presence of DTT [1]
CCn1nc(-c2cccs2)nc2c(=O)n(C)c(=O)nc1-2 [compound 850758, 1-ethyl-6-methyl-3-thiophen-2-ylpyrimido[5,6-e][1,2,4]triazine-5,7-dione]	> 50	4.43	94.4	-92.2	98.2	
O=C1C(=O)c2ccccc2-c2ccccc21 [9,10-phenanthrenedione]						generate significant amounts of H2O2
N#Cc1c(N)sc(=S)c2c1CCN(Cc1ccccc1)C2 [compound 845964, 3-amino-7-(phenylmethyl)-1-sulfanylidene-6,8-dihydro-5H-thiopyrano[5,4-c]pyridine-4-carbonitrile]	> 50	> 50	95.2	47.7	35.7	
Cn1ncnc2c(=O)n(C)c(=O)nc1-2 [compound 4251194, 1,6-dimethylpyrimido[5,6-e][1,2,4]triazine-5,7-dione]	> 50	5.68	94.4	-27.2	98	
CCCCn1c(NC(=O)c2ccccc2)c(C#N)c2nc3ccccc3nc21 [compound 3712327, N-(1-butyl-3-cyanopyrrolo[5,4-b]quinoxalin-2-yl)benzamide]		> 50	79.9	69.9	-5.25	
CCn1nc(-c2ccccc2)nc2c(=O)n(C)c(=O)nc1-2 [compound 845167, 1-ethyl-6-methyl-3-phenylpyrimido[5,6-e][1,2,4]triazine-5,7-dione]	> 50	4.9	95.6	-66.3	96.2	
